Where a name gives a salt, the structure may show the parent alone.
What follows are compounds tested against T1, rat NaPi-2b (Rattus norvegicus, UniProt Q9JJ09) (assay: Sodium-dependent phosphate uptake of Xenopus oocytes which expressed NaPi-2b (32P)). Conditions: Xenopus oocytes expressing rat NaPi-2b, 32P radioactive phosphorus; read-out: IC50 (phosphate uptake inhibitory activity).
T1 construct: expressed in transfected cells; host or cells: Xenopus oocytes injected with cRNA
T1 sequence (Q9JJ09 1-695): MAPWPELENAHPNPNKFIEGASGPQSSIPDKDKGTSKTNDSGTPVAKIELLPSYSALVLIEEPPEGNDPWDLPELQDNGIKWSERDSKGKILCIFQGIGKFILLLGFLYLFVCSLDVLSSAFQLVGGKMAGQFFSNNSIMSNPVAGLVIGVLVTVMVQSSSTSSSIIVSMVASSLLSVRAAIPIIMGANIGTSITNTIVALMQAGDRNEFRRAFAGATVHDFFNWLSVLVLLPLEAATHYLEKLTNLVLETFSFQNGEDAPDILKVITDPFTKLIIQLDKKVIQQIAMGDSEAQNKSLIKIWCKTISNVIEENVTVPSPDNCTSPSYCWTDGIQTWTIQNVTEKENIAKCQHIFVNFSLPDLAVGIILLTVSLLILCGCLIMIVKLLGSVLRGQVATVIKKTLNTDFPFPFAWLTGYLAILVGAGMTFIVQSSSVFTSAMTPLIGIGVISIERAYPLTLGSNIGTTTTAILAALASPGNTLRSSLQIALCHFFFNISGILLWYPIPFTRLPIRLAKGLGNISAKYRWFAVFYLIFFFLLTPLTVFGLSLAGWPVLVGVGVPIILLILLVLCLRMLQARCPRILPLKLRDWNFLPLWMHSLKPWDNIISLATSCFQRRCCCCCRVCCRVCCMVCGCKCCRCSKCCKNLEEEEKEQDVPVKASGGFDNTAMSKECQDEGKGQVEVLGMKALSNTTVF
Format: cell-based
How it was run: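 Oocytes injected with rat NaPi-2b cRNA, cultured 2 d, then 32P uptake measured with compound. Values: % inhibition at 300 and 100 μM, both from one inhibition curve.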

| SMILES | IC50 |
| --- | --- |
| O=C(Nc1ccc(Br)cc1C(=O)N/N=C/c1ccc(Cl)c(C(F)(F)F)c1)c1ccc(CN2CCC(CCO)CC2)cc1 [Compound 745, N-[4-Bromo-2-(4-chloro-3-trifluoromethyl-benzylidene-hydrazinocarbonyl)-phenyl]-4-[4-(2-hydroxy-ethyl)-piperidin-1-ylmethyl]-benzamide] | 6.12 µM |
| CCN(CC)CCN(C)Cc1cccc(C(=O)Nc2scc(C)c2C(=O)N/N=C/c2ccc(Cl)c(C(F)(F)F)c2)c1 [Compound 567, N-[3-(4-Chloro-3-trifluoromethyl-benzylidene-hydrazinocarbonyl)-4-methyl-thiophen-2-yl]-3-{[(2-diethylamino-ethyl)-methyl-amino]-methyl}-benzamide] | < 1 µM |
| Cc1ccc(/C=N/NC(=O)c2cc(Cl)ccc2NC(=O)c2ccccn2)cc1 [Compound 362, Pyridin-2-carboxylic acid [4-chloro-2-(4-methyl-benzylidene-hydrazinocarbonyl)-phenyl]-amide] | < 1 µM |
| CCN(CC)CCNCc1ccc(C(=O)Nc2ccc(Br)cc2C(=O)N/N=C/c2cccc(OC)c2)cc1 [Compound 299, N-[4-Bromo-2-(3-methoxy-benzylidene-hydrazinocarbonyl)-phenyl]-4-[(2-diethylamino-ethylamino)-methyl]-benzamide] | 3.91 µM |
| Cc1ccc(/C=N/NC(=O)c2cc(Br)ccc2NC(=O)c2ccccn2)cc1 [Compound 356, Pyridin-2-carboxylic acid [4-bromo-2-(4-methyl-benzylidene-hydrazinocarbonyl)-phenyl]-amide hydrochloride] | 0.17 µM |
| O=C(Nc1ccc(Cl)cc1C(=O)N/N=C/c1ccc(OC(F)(F)F)cc1)c1cccc(CSCC(O)CO)c1 (stereo not drawn) [Compound 1012, N-[4-Chloro-2-(4-trifluoromethoxy-benzylidene-hydrazinocarbonyl)-phenyl]-3-(2,3-dihydroxy-propylsulfanylmethyl)-benzamide] | 1.89 µM |
| COc1ccc(/C=N/NC(=O)c2cc(OC)ccc2NC(=O)c2cccc(CSCC(O)CO)c2)cc1 (stereo not drawn) [Compound 1021, 3-(2,3-Dihydroxy-propylsulfanylmethyl)-N-[4-methoxy-2-(4-methoxy-benzylidene-hydrazinocarbonyl)-phenyl]-benzamide] | 5.57 µM |
| CCN(CCO)Cc1cccc(C(=O)Nc2ccc(Cl)cc2C(=O)N/N=C/c2ccc(C)c(C)c2)c1 [Compound 426, N-[4-Chloro-2-(3,4-dimethyl-benzylidene-hydrazinocarbonyl)-phenyl]-3-{[ethyl-(2-hydroxy-ethyl)-amino]-methyl}-benzamide] | 1.89 µM |
| CC(O)CN(Cc1cccc(C(=O)Nc2ccc(N3CCCCC3)cc2C(=O)NN=Cc2ccc(Cl)c(C(F)(F)F)c2)c1)CC(C)O (stereo not drawn) [Compound 942, 3-{[Bis-(2-hydroxy-propyl)-amino]-methyl}-N-[2-(4-chloro-3-trifluoromethyl-benzylidene-hydrazinocarbonyl)-4-piperidin-1-yl-phenyl]-benzamide] | 0.2 µM |
| O=C(Nc1ccc(Br)cc1C(=O)N/N=C/c1ccc(Cl)c(C(F)(F)F)c1)c1cccc(CSc2nc[nH]n2)c1 [Compound 272, N-[4-Bromo-2-(4-chloro-3-trifluoromethyl-benzylidene-hydrazinocarbonyl)-phenyl]-3-(1H-[1,2,4]triazol-3-ylsulfanylmethyl)-benzamide] | 0.47 µM |
| CCc1ccc(C(=O)Nc2ccc(Br)cc2C(=O)N/N=C/c2cccc(F)c2)cc1 [Compound 178, N-[4-Bromo-2-(3-fluoro-benzylidene-hydrazinocarbonyl)-phenyl]-4-ethyl-benzamide] | 7.54 µM |
| O=C(Nc1ccc(Br)cc1C(=O)N/N=C/c1cccc(F)c1)c1ccc(CSc2ccncc2)cc1 [Compound 255, N-[4-Bromo-2-(3-fluoro-benzylidene-hydrazinocarbonyl)-phenyl]-4-(pyridin-4-ylsulfanylmethyl)-benzamide] | 3.54 µM |
| Cc1ccc(/C=N/NC(=O)c2cc(Br)ccc2NC(=O)c2ccccn2)cc1C [Compound 499, Pyridin-2-carboxylic acid [4-bromo-2-(3,4-dimethyl-benzylidene-hydrazinocarbonyl)-phenyl]-amide] | 0.98 µM |
| COc1ccc(C(=O)Nc2ccccc2C(=O)N/N=C/c2ccc(O)cc2O)cc1OC [Compound 25, N-[2-(2,4-Dihydroxy-benzylidene-hydrazinocarbonyl)-phenyl]-3,4-dimethoxy-benzamide] | 23.9 µM |
| O=C(Nc1ccc(Cl)cc1C(=O)N/N=C/c1ccc(Cl)c(C(F)(F)F)c1)c1cccc(CS(=O)(=O)Cc2ccco2)c1 [Compound 688, N-[4-Chloro-2-(4-chloro-3-trifluoromethyl-benzylidene-hydrazinocarbonyl)-phenyl]-3-(furan-2-ylmethanesulfonylmethyl)-benzamide] | < 3 µM |
| COCCOc1cc(NC(=O)c2cccc(CSCC(O)CO)c2)c(C(=O)N/N=C/c2cccc(F)c2)cc1OCCOC (stereo not drawn) [Compound 1013, 3-(2,3-Dihydroxy-propylsulfanylmethyl)-N-[2-(3-fluoro-benzylidene-hydrazinocarbonyl)-4,5-bis-(2-methoxy-ethoxy)-phenyl]-benzamide] | 8.89 µM |
| CC(O)CN(Cc1cccc(C(=O)Nc2ccc(F)cc2C(=O)N/N=C/c2ccc(Cl)c(C(F)(F)F)c2)c1)CC(C)O (stereo not drawn) [Compound 857, 3-{[Bis-(2-hydroxy-propyl)-amino]-methyl}-N-[2-(4-chloro-3-trifluoromethyl-benzylidene-hydrazinocarbonyl)-4-fluoro-phenyl]-benzamide] | 1.18 µM |
| Cc1ccc(/C=N/NC(=O)c2cc(Cl)ccc2NC(=O)c2ccc(CN(C)CCO)cc2)cc1C [Compound 416, N-[4-Chloro-2-(3,4-dimethyl-benzylidene-hydrazinocarbonyl)-phenyl]-4-{[(2-hydroxy-ethyl)-methyl-amino]-methyl}-benzamide] | 3.25 µM |
| Cc1csc(NC(=O)c2cccc(CN3CCC(CO)CC3)c2)c1C(=O)N/N=C/c1cccc(F)c1 [Compound 602, N-[3-(3-Fluoro-benzylidene-hydrazinocarbonyl)-4-methyl-thiophen-2-yl]-3-(4-hydroxymethyl-piperidin-1-ylmethyl)-benzamide] | 3.98 µM |

Same assay, conditions: phosphate uptake, oocytes expressing rat NaPi-2b; 300 μM, determined from inhibition curve

| SMILES | inhibition at 300 µM |
| --- | --- |
| Cc1ccc(/C=N/NC(=O)c2cc(Br)ccc2NC(=O)c2ccc(CN3CCN(c4ccccn4)CC3)cc2)cc1 [Compound 773, N-[4-Bromo-2-(4-methyl-benzylidene-hydrazinocarbonyl)-phenyl]-4-(4-pyridin-2-yl-piperazin-1-ylmethyl)-benzamide] | 53.9% |
| CCN(CC)CCN(C)Cc1cccc(C(=O)Nc2c(C)csc2C(=O)N/N=C/c2cccc(F)c2)c1 [Compound 529, 3-{[(2-Diethylamino-ethyl)-methyl-amino]-methyl}-N-[2-(3-fluoro-benzylidene-hydrazinocarbonyl)-4-methyl-thiophen-3-yl]-benzamide] | 81% |
| CCSCCNCc1ccc(C(=O)Nc2ccc(Br)cc2C(=O)N/N=C/c2cccc(OC)c2)cc1 [Compound 771, N-[4-Bromo-2-(3-methoxy-benzylidene-hydrazinocarbonyl)-phenyl]-4-[(2-ethylsulfanyl-ethylamino)-methyl]-benzamide] | 85.1% |
| Cc1ccc(/C=N/NC(=O)c2cc(Br)ccc2NC(=O)c2ccc(CN3CCC(CCO)CC3)cc2)cc1 [Compound 741, N-[4-Bromo-2-(4-methyl-benzylidene-hydrazinocarbonyl)-phenyl]-4-[4-(2-hydroxy-ethyl)-piperidin-1-ylmethyl]-benzamide] | 50.9% |
| COc1ccc(/C=N/NC(=O)c2cscc2NC(=O)c2cccc(CN(CC(C)O)CC(C)O)c2)cc1 (stereo not drawn) [Compound 979, 3-{[Bis-(2-hydroxy-propyl)-amino]-methyl}-N-[4-(4-methoxy-benzylidene-hydrazinocarbonyl)-thiophen-3-yl]-benzamide] | 73.7% |
| COc1ccc(/C=N/NC(=O)c2cccnc2NC(=O)c2cccc(CN(CC(C)O)CC(C)O)c2)cc1 (stereo not drawn) [Compound 968, 3-{[Bis-(2-hydroxy-propyl)-amino]-methyl}-N-[3-(4-methoxy-benzylidene-hydrazinocarbonyl)-pyridin-2-yl]-benzamide] | 52.7% |
| CN(CCCNCc1ccc(C(=O)Nc2ccc(Br)cc2C(=O)N/N=C/c2ccc(Cl)c(C(F)(F)F)c2)cc1)c1ccccc1 [Compound 761, N-[4-Bromo-2-(4-chloro-3-trifluoromethyl-benzylidene-hydrazinocarbonyl)-phenyl]-4-{[3-(methyl-phenyl-amino)-propylamino]-methyl}-benzamide] | 46.2% |
| Cc1ccc(CNNC(=O)c2cc(Cl)ccc2NC(=O)c2cccc(CSc3ccncc3)c2)cc1C [Compound 366, N-{4-Chloro-2-[N′-(3,4-dimethyl-benzyl)-hydrazinocarbonyl]-phenyl}-3-(pyridin-4-ylsulfanylmethyl)-benzamide] | 69.9% |

— US8134015B2, “Compound inhibiting in vivo phosphorous transport and medicine containing the same” (Kyowa Hakko Kirin Co., Ltd., priority 2003, dated 2012)
